Measurements reported in BindingDB's records for doi:10.1016/j.bmcl.2018.04.050 (Abbvie, 2018).

Tests used:
[1] = Binding affinity to thrombin cleavable N-terminal 6His tagged and 13C-IVLM labeled human KDM4A tandem TUDOR domain (897 to 1011 residues) expressed in Escherichia coli BL21(DE3)-T1R assessed as apparent Kd for H3(1-10)K4me3 peptide at 2.5 mM by ITC method (Rvb = 5.2 +/- 0.3 uM)
[2] = Binding affinity to thrombin cleavable N-terminal 6His tagged and 13C-IVLM labeled human KDM4A tandem TUDOR domain (897 to 1011 residues) expressed in Escherichia coli BL21(DE3)-T1R assessed as apparent Kd for H3(1-10)K4me3 peptide at 0.5 mM by ITC method (Rvb = 5.2 +/- 0.3 uM)
[3] = Binding affinity to thrombin cleavable N-terminal 6His tagged and 13C-IVLM labeled human KDM4A tandem TUDOR domain (897 to 1011 residues) expressed in Escherichia coli BL21(DE3)-T1R assessed as apparent Kd for H3(1-10)K4me3 peptide at 1 mM by ITC method (Rvb = 5.2 +/- 0.3 uM)

Compound: CN(C)C[C@H]1C2CCC(c3ccccc3)(C2)[C@H]1O (stereo partly drawn)
- Kd [1]: 55.1 µM
- Kd [2]: 15.5 µM
- Kd [3]: 22.7 µM
